From ChEMBL document CHEMBL4613329, “Characterization of Inhibition Reveals Distinctive Properties for Human and Saccharomyces cerevisiae CRM1” (J Med Chem, 2020)
Calls of active or inactive are those of the source. The rule behind the calls is not given here.

Legend:
[1] = target: Exportin-1 (Saccharomyces cerevisiae) (UniProt P30822); assay: Inhibition of fluorescently labeled PKI phi(0)Leu NES binding to Saccharomyces cerevisiae CRM1 expressed in Escherichia coli BL21 (DE3) at 0.2 to 200 uM by fluorescence polarization competition binding assay
Exportin-1 [2] = target: T1, Exportin-1 (Homo sapiens, UniProt O14980); assay: Inhibition of fluorescently labeled PKI phi(0)Leu NES binding to human CRM1 expressed in Escherichia coli BL21 (DE3) by fluorescence polarization competition binding assay
T1 sequence (O14980 whole entry): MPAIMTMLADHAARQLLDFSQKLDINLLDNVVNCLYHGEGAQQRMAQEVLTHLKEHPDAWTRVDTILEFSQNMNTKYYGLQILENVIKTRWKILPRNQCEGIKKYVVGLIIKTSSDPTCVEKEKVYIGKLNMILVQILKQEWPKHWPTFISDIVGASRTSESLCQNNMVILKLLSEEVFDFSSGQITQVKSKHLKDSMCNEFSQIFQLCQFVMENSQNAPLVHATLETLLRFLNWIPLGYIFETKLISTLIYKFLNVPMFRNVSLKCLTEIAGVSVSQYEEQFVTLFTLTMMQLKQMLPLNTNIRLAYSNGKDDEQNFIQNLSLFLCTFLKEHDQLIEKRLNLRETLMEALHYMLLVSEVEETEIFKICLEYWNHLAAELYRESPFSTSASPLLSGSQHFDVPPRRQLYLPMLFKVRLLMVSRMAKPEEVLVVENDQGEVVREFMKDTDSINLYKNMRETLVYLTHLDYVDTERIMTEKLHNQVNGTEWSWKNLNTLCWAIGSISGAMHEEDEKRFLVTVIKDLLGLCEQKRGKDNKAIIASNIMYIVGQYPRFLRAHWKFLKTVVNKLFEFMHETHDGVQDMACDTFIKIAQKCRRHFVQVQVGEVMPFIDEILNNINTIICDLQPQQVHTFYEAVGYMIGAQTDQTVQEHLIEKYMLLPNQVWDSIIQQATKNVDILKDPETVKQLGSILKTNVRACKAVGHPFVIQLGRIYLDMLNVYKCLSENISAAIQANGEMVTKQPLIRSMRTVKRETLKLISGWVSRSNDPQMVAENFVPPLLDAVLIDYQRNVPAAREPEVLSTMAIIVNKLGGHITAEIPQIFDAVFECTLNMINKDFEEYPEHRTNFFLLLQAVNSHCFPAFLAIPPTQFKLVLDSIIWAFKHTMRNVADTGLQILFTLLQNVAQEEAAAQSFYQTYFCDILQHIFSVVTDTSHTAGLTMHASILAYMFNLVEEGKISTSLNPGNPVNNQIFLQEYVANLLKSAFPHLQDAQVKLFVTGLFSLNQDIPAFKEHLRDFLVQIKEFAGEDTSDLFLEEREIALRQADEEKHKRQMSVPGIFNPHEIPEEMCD

[3] = tested on: Exportin-1 (Homo sapiens), O14980 [C528S]; assay: Inhibition of fluorescently labeled PKI phi(0)Leu NES binding to human CRM1 C528S mutant expressed in Escherichia coli BL21 (DE3) at 6 uM by fluorescence polarization competition binding assay
Chain of Exportin-1 (Homo sapiens), O14980 [C528S] (O14980 whole entry C528S, the tested form may be a part): as the sequence (O14980 whole entry) above, with C528S counted along it

Exportin-1 [4] = target: T1, Exportin-1; assay: Inhibition of immobilized HsCRM1-HsRanGTP-HsSPN binding to C-terminal His6-tagged and MBP-fused full length human CRM1 expressed in Escherichia coli SG13009 at 100 nmol incubated for 20 mins by pull-down assay
Saccharomyces cerevisiae [5] = assay: Inhibition of fluorescently labeled PKI phi(0)Leu NES binding to Saccharomyces cerevisiae CRM1 Thr539Cys mutant expressed in Escherichia coli BL21 (DE3) at 0.2 to 200 uM by fluorescence polarization competition binding assay
[6] = tested on: Exportin-1 (Homo sapiens), O14980 [C528S]; assay: Inhibition of fluorescently labeled PKI phi(0)Leu NES binding to human CRM1 C528S mutant expressed in Escherichia coli BL21 (DE3) at 62 uM by fluorescence polarization competition binding assay
[7] = target: Exportin-1 (Saccharomyces cerevisiae) (UniProt P30822); conditions: 2 to 2000 nM
Description: Inhibition of fluorescently labeled PKI phi(0)Leu NES binding to Saccharomyces cerevisiae CRM1 expressed in Escherichia coli BL21 (DE3) at 2 to 2000 nM by fluorescence polarization competition binding assay

[8] = tested on: Exportin-1 (Homo sapiens), O14980 [C528S]; conditions: 200 nM
Description: Inhibition of fluorescently labeled PKI phi(0)Leu NES binding to human CRM1 C528S mutant expressed in Escherichia coli BL21 (DE3) at 200 nM by fluorescence polarization competition binding assay

Saccharomyces cerevisiae [9] = assay: Inhibition of fluorescently labeled PKI phi(0)Leu NES binding to Saccharomyces cerevisiae CRM1 Thr539Cys mutant expressed in Escherichia coli BL21 (DE3) at 2 to 2000 nM by fluorescence polarization competition binding assay
[10] = target: Exportin-1 (Saccharomyces cerevisiae) (UniProt P30822); assay: Inhibition of fluorescently labeled PKI phi(0)Leu NES binding to Saccharomyces cerevisiae CRM1 expressed in Escherichia coli BL21 (DE3) at 0.5 to 500 uM by fluorescence polarization competition binding assay

Row | SMILES | inhibition [1] | IC50 (Exportin-1 [2]) [µM] | inhibition (Exportin-1 [2]) | inhibition [3] | inhibition (Exportin-1 [4]) | inhibition (Saccharomyces cerevisiae [5]) | inhibition [6] | inhibition [7] | inhibition [8] | inhibition (Saccharomyces cerevisiae [9]) | inhibition [10]
1 | COc1cc(-c2nc(S(=O)(=O)c3ccc(Cl)cc3)c(N(C)C)o2)cc(OC)c1OC | inactive | 4.2 | Dose-dependent effect | inactive | Active | inactive |  |  |  |  | 
2 | NC(=O)c1c(NC(NC(=O)c2ccccc2F)(C(F)(F)F)C(F)(F)F)sc2c1CCCC2 | inactive | 59 | Dose-dependent effect |  | inactive | inactive | inactive |  |  |  | 
3 | CCC(=C/[C@H](C)C/C=C/C(C)=C/[C@@H](C)C(=O)[C@@H](C)[C@H](O)[C@@H](C)C/C(C)=C/C(=O)O)/C=C/[C@@H]1OC(=O)C=C[C@@H]1C [LEPTOMYCIN B] |  | 0.151 |  |  |  |  |  | inactive | inactive | Active | 
4 | COc1cc2cnsc2s1 |  | 40 | Dose-dependent effect |  | inactive |  | inactive |  |  |  | 
5 | CCOC(=O)c1n[nH]c2c1C(=O)N(c1ccc([N+](=O)[O-])cc1)C2=O |  | 63 |  |  | Active |  | Active |  |  |  | Active
